Laboratory results from patent publication US8211445B2, “PSM peptides as vaccine targets against methicillin-resistant Staphylococcus” (The United States of America, as represented by the …, priority 2007, dated 2012).
Residues, ends and D or L forms follow the SMILES beside them. No end group written: not given here. *: point of attachment. For = O=C*

What was measured:
sheep red blood cells = experiment: Hemolysis of sheep red blood cells; format: cell-based; details: 10 μg/ml, compared to other PSMs (FIG. 21G)
Procedure: FIG. 8 includes several graphs showing hemolytic activities of PSMs. […] In FIGS. 8A and 8B, the data are mean±SEM of three independent measurements. P values are vs. DMSO in FIG. 8A and vs. wild-type in FIG. 8B. Hemolytic activity was determined by incubating samples with a 2% (v/v) suspension of sheep red blood cells and incubation at 37° C. for 1 hour. Synthetic PSM peptides or filtered bacterial overnight culture supernatants were diluted in PBS and added to sheep erythrocytes at a final concentration of 10 μg/ml for the peptides and 1:200 for culture filtrates.
Hemolysis: Hemolytic activity of PSM peptides was determined by incubating samples with a 2% (v/v) sheep red blood cells and incubation for 1 h at 37° C. as described (Wang et al., Nature Med. 13:1510-1514, 2007). Hemolytic activity of S. aureus wild-type and psm-mec deletion strains was assessed by streaking on sheep blood agar plates.

MRSA strains = details: cited from earlier work
[1] = Immunization of mice with synthetic PSM peptides, PSM-specific antibodies by ELISA; format: in vivo, mice (BALB/c); details: 50 μg s.c. with CFA, booster with IFA
Procedure: In order to determine the immunogenicity of synthetic PSM peptides, mice (BALB/c, female, 6-8 weeks) were injected subcutaneously with 50 μg (100 μL) of each PSM peptide in sterile PBS emulsified with complete Freund's adjuvant (CFA) for primary immunization. A booster injection containing incomplete Freund's adjuvant (IFA) instead of CFA was given to the animals 14 days after the primary immunization. The control group of animals received injections of sterile PBS and adjuvants only. Three blood withdrawals were performed on each mouse. The first two blood samples were collected via retro-orbital route immediately before primary injection and before booster injection, respectively. All animals were sacrificed 21 days after booster injection for the terminal blood samples.
PSM-specific antibodies in mouse serum were determined by ELISA assays. Microtiter plates (Nunc 96-well flat-bottom MaxiSorp plates) were coated with 20 μg/ml of each synthetic PSM peptides in PBS plus 0.05% NaN3, and incubated overnight at 4° C. The plates were washed with PBS containing 0.05% Tween-20, and blocked for 1 hour at room temperature with 1% BSA (Sigma) and 0.05% NaN3 in PBS. Serum samples were diluted in assay diluent (Tris-buffered saline containing 0.1% BSA and 0.05% Tween-20, pH 7.2), and added to the washed wells at 100 μl/well for an incubation of 2 hours at room temperature. Plates were washed again and HRP-labeled goat anti-mouse IgG (R&D Systems) and goat anti-mouse IgM (Jackson ImmunoResearch Laboratory) were diluted in assay diluent and added to the plates at 100 μl/well for an incubation of 1 hour at room temperature in order to detect PSM specific mouse IgG and IgM, respectively. Plates were washed again and a substrate solution containing equal volume of Tetramethylbenzidine and H2O2 was added to the plates at 100 μl/well for color development. The reaction was terminated by adding 50 μl of 1 M H2SO4 to each well, and optical density (O.D.) was measured at 450 nm using an ELISA plate reader.

human neutrophils [2] = experiment: Priming of human neutrophils (surface expression of CD11b and gp91phox); format: cell-based; design: key to CD11b: x: reduced activity; xx: strongly reduced activity; details: for ability to increase CD11b expression: compared with wild type PSMα3; for CD11b: surface expression of CD11b on human neutrophils, relative to wild type PSMα3
Procedure: (§1) Priming of PMNs by synthetic PSMs was determined by increased surface expression of CD11b and gp91phox (granule exocytosis). PMNs were incubated with 10-10,000 ng/ml PSM, 10 μM fMLP, 10 ng/ml lipopolysaccharide, or 10 μg/ml lipoteichoic acid in 96-well tissue culture plates at 37° C. with rotation for 60 minutes. The assay was terminated by centrifuging cells at 4° C. for 8 minutes at 350×g. Cells were washed twice in cold Dulbecco's phosphate-buffered saline and stained with and isotype control antibody (BD Biosciences) or those specific for CD11b (mAb 44, BD Biosciences) or gp91phox (mAb 7D533). Propidium iodide (0.5 μg/ml) was used to identify dead cells. PMNs were analyzed on a FACSCalibur flow cytometer (Becton Dickinson) and dead cells were excluded with a single gate. Percent positive neutrophils were determined with a marker defined by the boundary of the isotype-matched control antibody.
as §1, with “10-10000” for “10-10,000”, “7D5).” for “7D533).”
(§2) Human neutrophil assays: Human neutrophil isolation, chemotaxis, calcium ion flux, priming, lysis assays, and measurement of IL-8 production were performed as described in Example 2.

human PMN = experiment: Measurement of cytokine production by human PMN (ELISA); format: cell-based; design: key to IL-8: x: reduced activity; xx: strongly reduced activity; details: for IL-8 secretion: compared with wild type PSMα3; for IL-8: secretion of IL-8 by human neutrophils, relative to wild type PSMα3
Procedure: After isolation and washing, PMN or PBMC were resuspended in RPMI 1640 medium (Sigma) supplemented with 10% human serum, 2 mM L-glutamine, 100 U/ml penicillin, 100 μg/ml streptomycin, 2 mM sodium pyruvate, and 10 mM HEPES. Cells were distributed to a 96-well culture plate at 200 μl and 5×10^5 cells per well. Synthetic PSM peptides or filtered bacterial culture supernatants were diluted in fresh culture medium and added to the plate at 100 μl/well. Plates were incubated at 37° C. in a 5.5% CO2 incubator for 5 hours. Then, the plate was centrifuged at 1500 rpm for 10 minutes, and supernatant was harvested from each well. Mono Mac 6 cells were obtained from DSMZ (Germany), and were grown in RPMI 1640 plus 10% heat inactivated fetal bovine serum (HyClone), 2 mM L-glutamine, 10.0 units/ml penicillin, 10.0 μg/ml streptomycin, 0.2× non-essential amino acid solution, and OPI medium supplement (Sigma). Cells were grown in T75 culture flasks in a 37° C. CO2 incubator and harvested by centrifugation. After removal of supernatant, cells were resuspended in fresh culture medium, counted, and distributed into a 96-well cell culture plate at 100 μl and 2.5×10^5 cells per well. Phorbol 12-myristate 13-acetate (Sigma) was added to a final concentration of 2.5 ng/ml for cell pre-stimulation. The plate was incubated in a 37° C. CO2 incubator for 3 hours. At the end of the pre-stimulation period, synthetic PSM peptides were diluted in culture medium and added to the cells at 100 μl/well. Cells were incubated in a 37° C. CO2 incubator for 20-22 hours, and the plate was centrifuged at 1500 rpm for 10 minutes. Human TNF-α, IL-1β, IL-8, and mouse TNF-α were measured in the culture supernatants with commercial ELISA assay kits (R&D systems) according to the manufacturer's instructions.
as §2

human neutrophils [3] = experiment: Lysis of human neutrophils (release of lactate dehydrogenase); format: cell-based; design: key to Neutrophil lysis: x: reduced activity; xx: strongly reduced activity; details: for ability to promote neutrophil lysis: compared with wild type PSMα3; for Neutrophil lysis: pro-inflammatory activity of PSMα3 mutants, relative to wild type PSMα3
Procedure: (§3) Lysis of PMNs by synthetic PSMs or clarified S. aureus culture media was determined essentially as described (Voyich et al., J Infect Dis 194, 1761-70, 2006; Voyich et al., J Immunol 175, 3907-19, 2005). Synthetic PSMs (1 or 10 μg/ml) were added to wells of a 96-well tissue culture plate containing 10^6 PMNs and plates were incubated at 37° C. for up to 3 hours. At the desired times, PMN lysis was determined by release of lactate dehydrogenase (LDH; Cytotoxicity Detection Kit, Roche Applied Sciences). Alternatively, wild-type and isogenic mutant S. aureus strains were cultured for 18 hours at 37° C. in 50 ml TSB with shaking using a 100 ml flask. Bacteria were removed by centrifugation and culture media were sterilized by filtration and stored at −80° C. in aliquots until used. Culture medium was diluted 1:10 in RPMI/H, mixed with human PMNs (10^6) and tested for its ability to cause PMN lysis.
as §3, with “above in Example 2.” for “(Voyich et al., J Infect Dis 194, 1761-70, 2006; Voyich et al., J Immunol 175, 3907-19, 2005).”
as §2

[4] = N-formylated synthetic PSM peptides, BALB/c mice (FIG. 11)
[5] = non N-formylated synthetic PSM peptides, BALB/c mice (FIG. 12)

Compound | IL-8 (human PMN) | Neutrophil lysis (human neutrophils [3]) | other results
CC[C@H](C)[C@H](NC(=O)[C@H](CS)NC(=O)[C@@H](NC(=O)[C@H](CCCCN)NC(=O)[C@@H](NC(=O)[C@H](CC(C)C)NC(=O)[C@H](CC(=O)O)NC(=O)[C@@H](NC(=O)[C@@H](NC(=O)[C@H](CO)NC(=O)[C@@H](NC(=O)[C@@H](NC(=O)[C@@H](NC(=O)CNC(=O)[C@@H](NC(=O)[C@H](Cc1ccccc1)NC(=O)[C@H](CC(=O)O)NC(=O)[C@H](CCSC)NC=O)[C@@H](C)O)C(C)C)[C@@H](C)CC)[C@@H](C)O)[C@@H](C)CC)[C@@H](C)CC)[C@@H](C)CC)[C@@H](C)O)C(=O)N[C@@H](CCC(N)=O)C(=O)N[C@@H](C)C(=O)N[C@@H](Cc1ccccc1)C(=O)NCC(=O)O [PSM-mec] (HELM PEPTIDE1{[O=C[*:2]].M.D.F.T.G.V.I.T.S.I.I.D.L.I.K.T.C.I.Q.A.F.G}$$$$V2.0) | – | – | lysis of sheep erythrocytes (sheep red blood cells): intermediate range
CN[C@H](CC(C)C)C(=O)N[C@H]1C(=O)N[C@@H](CC(N)=O)C(=O)N[C@H]2C(=O)N[C@H]3C(=O)N[C@H](C(=O)N[C@H](C(=O)O)c4cc(O)cc(O)c4-c4cc3ccc4O)[C@H](O)c3ccc(c(Cl)c3)Oc3cc2cc(c3O[C@@H]2O[C@H](CO)[C@@H](O)[C@H](O)[C@H]2O[C@H]2C[C@](C)(N)[C@H](O)[C@H](C)O2)Oc2ccc(cc2Cl)[C@H]1O [vancomycin] | – | – | minimum inhibitory concentration [MIC] (MRSA strains; MRSA strains with decreased susceptibility to vancomycin): 8 to 16 µg/mL; MIC (MRSA strains; strains fully resistant to vancomycin): ≥ 32 µg/mL
MAIVGTIIKIIKAIIDIFAK [PSMα4] | – | – | specific antibody production in vivo [1, 4]: most robust antibody production
MEFVAKLFKFFKDLLGKFLGNN [PSMα3, no formyl] | xx | x | ability to increase CD11b expression (human neutrophils [2]): strongly reduced ability; CD11b (human neutrophils [2]): xx; IL-8 secretion (human PMN): strongly reduced ability; ability to promote neutrophil lysis (human neutrophils [3]): reduced ability
MEGLFNAIKDTVTAAINNDGAKLGTSIVSIVENGVGLLGKLFGF (S. aureus) [PSMβ1] | – | – | specific antibody production in vivo [1, 5]: strongest response
MGIIAGIIKVIKSLIEQFTGK (S. aureus) [PSMα1] | – | – | specific antibody production in vivo [1, 4]: most robust antibody production; specific antibody production in vivo [1, 5]: strongest response
fMAFVAKLFKFFKDLLGKFLGNN [#1] | – | xx | CD11b (human neutrophils [2]): x
fMEFAAKLFKFFKDLLGKFLGNN (For-MEFAAKLFKFFKDLLGKFLGNN; listed as Staphylococcus aureus) [#3] | xx | – | –
fMEFVAALFKFFKDLLGKFLGNN (For-MEFVAALFKFFKDLLGKFLGNN; listed as Staphylococcus aureus) [#4] | xx | xx | –
fMEFVAKAFKFFKDLLGKFLGNN (For-MEFVAKAFKFFKDLLGKFLGNN; listed as Staphylococcus aureus) [#5] | – | xx | –
fMEFVAKLFAFFKDLLGKFLGNN [#7] | xx | – | –
fMEFVAKLFKFFADLLGKFLGNN (For-MEFVAKLFKFFADLLGKFLGNN; listed as Staphylococcus aureus) [#10] | xx | x | CD11b (human neutrophils [2]): xx
fMEFVAKLFKFFKALLGKFLGNN [#11] | xx | – | –
fMEFVAKLFKFFKDLLAKFLGNN [#14] | xx | – | –
fMEFVAKLFKFFKDLLGAFLGNN [#15] | xx | xx | –
fMEFVAKLFKFFKDLLGKFLGAN [#19] | xx | xx | ability to increase CD11b expression (human neutrophils [2]): greatest reduction; CD11b (human neutrophils [2]): xx; IL-8 secretion (human PMN): greatest reduction; ability to promote neutrophil lysis (human neutrophils [3]): greatest reduction
fMEFVAKLFKFFKDLLGKFLGNA [#20] | xx | x | CD11b (human neutrophils [2]): x
